This note sets out measurements from ChEMBL document CHEMBL3804811 (J Med Chem, 2016).

Series [1] concerns the target Vascular endothelial growth factor receptor 3 (Homo sapiens, UniProt P35916). In words: Inhibition of VEGFR3 (unknown origin) in presence of gamma33-ATP.
The nature of series [2]: Cmax in Harlan nu/nu mouse at 10 mg/kg, po administered as single dose by LC-MS/MS analysis. The series is classed as ADME, organism-based. Details: dose 10 mg/kg, route oral. Conditions: in vivo.
Series [3] is described as follows: Tmax in Harlan nu/nu mouse at 10 mg/kg, po administered as single dose by LC-MS/MS analysis. In kind it is ADME, organism-based. Conditions: in vivo.
In series [4] the target is Tyrosine-protein kinase JAK2 (Homo sapiens, UniProt O60674). In words: Inhibition of JAK2 (unknown origin) in presence of gamma33-ATP.
Series [5] is described as follows: Antiproliferative activity against human KARPAS299 cells incubated for 72 hrs by cell titer-glo assay. Conditions: KARPAS-299, 72 h.
Series [6] in a line: Cmax in Harlan nu/nu mouse at 10 mg/kg, iv administered as single dose by LC-MS/MS analysis. In kind it is ADME, organism-based. Further details: dose 10 mg/kg, route intravenous. Conditions: in vivo.
The nature of series [7]: Plasma concentration in Harlan nu/nu mouse at 240 mg/kg, po administered per day for 2 weeks measured 6 hrs post last dose by LC-MS/MS analysis. In kind it is ADME, organism-based.
A short description of series [8]: Half life in Sprague-Dawley rat at 10 mg/kg, po administered as single dose by LC-MS/MS analysis. Conditions: in vivo. The series is classed as ADME, organism-based.
Series [9] in a line: Half life in Beagle dog at 10 mg/kg, iv administered as single dose by LC-MS/MS analysis. The series is classed as ADME, organism-based, Canis lupus familiaris. Conditions: in vivo.
Series [10] has as its target Serine/threonine-protein kinase Nek6 (Homo sapiens, UniProt Q9HC98). In words: Inhibition of NEK6 (unknown origin) in presence of gamma33-ATP.
The test system of the next series is KM12. In words: Antiproliferative activity against human KM12 cells expressing TRKA protein incubated for 72 hrs by cell titer-glo assay. Conditions: KM12, 72 h.
Series [11] is described as follows: Oral bioavailability in Harlan nu/nu mouse at 10 mg/kg administered as single dose by LC-MS/MS analysis. The series is classed as ADME, organism-based. Conditions: in vivo.
Series [12] can be described thus: AUC (infinity) in Beagle dog at 10 mg/kg, iv administered as single dose by LC-MS/MS analysis. In kind it is ADME, organism-based, Canis lupus familiaris. Details: dose 10 mg/kg, route intravenous, time infinity. Conditions: in vivo.
Series [13] is described as follows: Antiproliferative activity against human SU-DHL1 cells expressing ALK protein incubated for 72 hrs by cell titer-glo assay. In kind it is functional, cell-based. Conditions: SU-DHL-1, 72 h.
Series [14] in a line: Tmax in Sprague-Dawley rat at 10 mg/kg, po administered as single dose by LC-MS/MS analysis. The series is classed as ADME, organism-based. Conditions: in vivo.
In series [15] the target is T1, Eukaryotic elongation factor 2 kinase (Homo sapiens, UniProt O00418).
T1 sequence (O00418 whole entry): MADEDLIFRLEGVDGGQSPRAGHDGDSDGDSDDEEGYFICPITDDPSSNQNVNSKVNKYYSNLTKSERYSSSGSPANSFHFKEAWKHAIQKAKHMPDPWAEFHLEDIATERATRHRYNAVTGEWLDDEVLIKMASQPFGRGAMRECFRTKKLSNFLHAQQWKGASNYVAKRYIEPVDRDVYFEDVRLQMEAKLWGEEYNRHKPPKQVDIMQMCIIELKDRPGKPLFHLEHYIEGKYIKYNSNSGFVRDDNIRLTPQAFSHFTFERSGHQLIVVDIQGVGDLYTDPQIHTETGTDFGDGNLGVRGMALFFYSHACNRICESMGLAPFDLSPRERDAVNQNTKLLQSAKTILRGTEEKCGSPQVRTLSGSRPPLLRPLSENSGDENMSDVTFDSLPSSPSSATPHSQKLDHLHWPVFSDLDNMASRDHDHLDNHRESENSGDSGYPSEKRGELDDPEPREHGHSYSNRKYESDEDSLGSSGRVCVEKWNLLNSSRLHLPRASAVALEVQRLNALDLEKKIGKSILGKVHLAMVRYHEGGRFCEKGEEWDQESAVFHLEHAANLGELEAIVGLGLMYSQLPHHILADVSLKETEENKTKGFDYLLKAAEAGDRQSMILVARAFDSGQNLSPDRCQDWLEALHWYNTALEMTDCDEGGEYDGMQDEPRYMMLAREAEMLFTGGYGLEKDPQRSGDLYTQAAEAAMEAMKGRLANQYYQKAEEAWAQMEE
The experiment in a line: Inhibition of EEF2K (unknown origin) in presence of gamma33-ATP.

The nature of series [16]: Ratio of drug level in brain to plasma in Harlan nu/nu mouse at 240 mg/kg, po administered per day for 2 weeks measured 6 hrs post last dose by LC-MS/MS analysis. In kind it is ADME, organism-based. Conditions: read-out: BPR.
A short description of series [17]: Antiproliferative activity against human MV411 cells incubated for 72 hrs by cell titer-glo assay. Conditions: MV4-11, 72 h. In kind it is functional, cell-based.
A short description of series [18]: Clearance in Sprague-Dawley rat at 10 mg/kg, iv administered as single dose by LC-MS/MS analysis. In kind it is ADME, organism-based. Conditions: in vivo.
Series [19] deals with Mast/stem cell growth factor receptor Kit (Homo sapiens, UniProt P10721). The experiment in a line: Inhibition of KIT (unknown origin) in presence of gamma33-ATP.
Series [20] addresses T2, Inhibitor of nuclear factor kappa-B kinase subunit beta (Homo sapiens, UniProt O14920).
T2 sequence (O14920 whole entry): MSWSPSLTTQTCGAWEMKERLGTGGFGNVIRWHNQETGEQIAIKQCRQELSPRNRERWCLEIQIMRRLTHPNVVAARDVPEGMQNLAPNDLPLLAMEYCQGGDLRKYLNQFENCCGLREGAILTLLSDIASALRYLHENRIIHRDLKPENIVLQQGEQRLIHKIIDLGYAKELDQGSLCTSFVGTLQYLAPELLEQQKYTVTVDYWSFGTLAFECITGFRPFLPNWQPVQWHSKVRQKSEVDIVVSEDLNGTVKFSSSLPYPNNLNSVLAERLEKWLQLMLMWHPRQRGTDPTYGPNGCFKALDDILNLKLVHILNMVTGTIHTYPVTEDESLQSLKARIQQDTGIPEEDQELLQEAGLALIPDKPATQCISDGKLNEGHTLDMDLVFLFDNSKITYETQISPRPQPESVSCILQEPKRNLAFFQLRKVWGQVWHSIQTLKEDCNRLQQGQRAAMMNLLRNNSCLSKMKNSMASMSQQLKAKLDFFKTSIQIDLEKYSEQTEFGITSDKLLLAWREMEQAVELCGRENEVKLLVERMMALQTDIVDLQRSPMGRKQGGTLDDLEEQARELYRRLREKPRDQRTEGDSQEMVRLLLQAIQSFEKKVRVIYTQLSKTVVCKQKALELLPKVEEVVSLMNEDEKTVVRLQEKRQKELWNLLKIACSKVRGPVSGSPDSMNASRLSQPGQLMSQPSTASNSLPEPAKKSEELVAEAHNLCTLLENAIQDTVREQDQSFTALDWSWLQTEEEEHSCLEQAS
The experiment in a line: Inhibition of IKK2 (unknown origin) in presence of gamma33-ATP.

A short description of series [21]: Cytotoxicity against mouse IL-3 dependent BA/F3 cells incubated for 72 hrs by cell titer-glo assay. In kind it is cell-based. Conditions: BaF3, 72 h.
Series [22] in a line: Apparent permeability from apical to basolateral side in human Caco2 cells at 2.5 mg/ml after 2 hrs by reversed-phase HPLC method. In kind it is ADME, cell-based. Conditions: Caco-2.
Series [23] can be described thus: AUC (infinity) in Beagle dog at 10 mg/kg, po administered as single dose by LC-MS/MS analysis. Conditions: in vivo. The series is classed as ADME, organism-based, Canis lupus familiaris. Further details: dose 10 mg/kg, time infinity, route oral.

The structures appear in SMILES notation. Bounds are passed on as bounds.

Sequence of Mast/stem cell growth factor receptor Kit (P10721 whole entry): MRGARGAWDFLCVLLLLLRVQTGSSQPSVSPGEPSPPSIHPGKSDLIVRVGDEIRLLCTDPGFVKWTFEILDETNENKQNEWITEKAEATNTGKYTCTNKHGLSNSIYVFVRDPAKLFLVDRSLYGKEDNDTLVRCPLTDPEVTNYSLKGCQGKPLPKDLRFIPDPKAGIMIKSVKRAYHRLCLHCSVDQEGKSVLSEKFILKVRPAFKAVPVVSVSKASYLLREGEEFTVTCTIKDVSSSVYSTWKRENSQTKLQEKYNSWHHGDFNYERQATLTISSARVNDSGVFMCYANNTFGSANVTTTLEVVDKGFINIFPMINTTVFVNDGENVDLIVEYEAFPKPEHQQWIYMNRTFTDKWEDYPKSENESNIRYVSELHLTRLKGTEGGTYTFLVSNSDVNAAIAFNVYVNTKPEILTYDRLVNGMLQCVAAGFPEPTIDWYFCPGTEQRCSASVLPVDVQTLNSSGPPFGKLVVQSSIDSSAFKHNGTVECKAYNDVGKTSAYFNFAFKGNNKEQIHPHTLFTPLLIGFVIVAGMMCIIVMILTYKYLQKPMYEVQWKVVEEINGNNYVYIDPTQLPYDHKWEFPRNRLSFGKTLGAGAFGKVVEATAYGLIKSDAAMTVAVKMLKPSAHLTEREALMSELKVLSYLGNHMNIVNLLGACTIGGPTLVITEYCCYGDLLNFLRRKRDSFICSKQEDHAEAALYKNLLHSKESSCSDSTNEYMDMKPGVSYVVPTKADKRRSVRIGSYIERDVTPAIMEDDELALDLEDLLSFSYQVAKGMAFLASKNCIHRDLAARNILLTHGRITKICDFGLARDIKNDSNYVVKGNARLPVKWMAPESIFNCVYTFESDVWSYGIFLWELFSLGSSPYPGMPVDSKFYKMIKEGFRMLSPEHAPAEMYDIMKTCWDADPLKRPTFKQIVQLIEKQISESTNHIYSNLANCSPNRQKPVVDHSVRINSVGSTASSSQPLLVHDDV
Sequence of Vascular endothelial growth factor receptor 3 (P35916 whole entry): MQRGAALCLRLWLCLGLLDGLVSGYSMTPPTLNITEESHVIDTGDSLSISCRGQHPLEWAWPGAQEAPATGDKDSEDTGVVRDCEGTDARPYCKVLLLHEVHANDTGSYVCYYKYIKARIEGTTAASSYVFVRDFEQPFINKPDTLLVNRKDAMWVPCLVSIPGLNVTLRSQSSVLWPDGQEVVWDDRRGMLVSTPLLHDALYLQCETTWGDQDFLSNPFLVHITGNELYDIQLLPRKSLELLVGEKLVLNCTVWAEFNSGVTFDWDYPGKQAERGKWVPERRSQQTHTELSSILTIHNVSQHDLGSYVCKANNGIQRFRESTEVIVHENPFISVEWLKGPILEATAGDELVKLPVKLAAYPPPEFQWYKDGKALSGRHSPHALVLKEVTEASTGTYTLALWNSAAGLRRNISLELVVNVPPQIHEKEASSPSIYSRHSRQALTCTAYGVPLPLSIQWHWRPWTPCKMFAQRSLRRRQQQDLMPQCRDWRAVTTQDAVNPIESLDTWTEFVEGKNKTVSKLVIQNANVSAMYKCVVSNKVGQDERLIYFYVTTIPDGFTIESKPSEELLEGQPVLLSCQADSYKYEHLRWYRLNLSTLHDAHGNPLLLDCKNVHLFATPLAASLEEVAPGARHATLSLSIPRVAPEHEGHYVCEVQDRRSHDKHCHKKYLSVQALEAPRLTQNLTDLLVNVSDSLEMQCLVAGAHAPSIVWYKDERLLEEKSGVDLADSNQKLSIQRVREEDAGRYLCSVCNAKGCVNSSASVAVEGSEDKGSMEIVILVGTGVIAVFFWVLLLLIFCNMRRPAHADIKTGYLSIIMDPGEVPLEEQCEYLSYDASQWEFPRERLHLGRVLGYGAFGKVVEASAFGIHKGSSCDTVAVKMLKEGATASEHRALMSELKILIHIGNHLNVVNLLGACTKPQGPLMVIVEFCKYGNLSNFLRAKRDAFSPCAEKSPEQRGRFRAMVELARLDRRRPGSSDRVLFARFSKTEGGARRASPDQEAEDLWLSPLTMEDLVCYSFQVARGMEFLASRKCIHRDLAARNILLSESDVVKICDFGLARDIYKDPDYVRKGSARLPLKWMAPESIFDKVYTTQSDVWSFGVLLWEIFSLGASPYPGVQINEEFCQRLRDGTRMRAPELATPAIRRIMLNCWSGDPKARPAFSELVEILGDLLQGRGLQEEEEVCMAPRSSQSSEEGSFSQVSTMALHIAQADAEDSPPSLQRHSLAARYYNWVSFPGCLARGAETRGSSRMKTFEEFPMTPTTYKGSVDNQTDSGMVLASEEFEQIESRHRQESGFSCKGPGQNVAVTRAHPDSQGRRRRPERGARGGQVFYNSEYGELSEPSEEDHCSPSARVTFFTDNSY
Sequence of Serine/threonine-protein kinase Nek6 (Q9HC98 whole entry): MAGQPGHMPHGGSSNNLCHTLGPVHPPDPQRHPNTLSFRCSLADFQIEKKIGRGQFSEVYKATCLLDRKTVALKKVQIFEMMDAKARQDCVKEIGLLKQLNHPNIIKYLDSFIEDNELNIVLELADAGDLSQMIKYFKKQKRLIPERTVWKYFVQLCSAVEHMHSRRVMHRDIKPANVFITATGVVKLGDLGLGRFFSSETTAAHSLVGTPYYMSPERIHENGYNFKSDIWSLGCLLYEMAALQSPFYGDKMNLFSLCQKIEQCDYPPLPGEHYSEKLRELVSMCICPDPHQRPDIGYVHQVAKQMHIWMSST
Sequence of Tyrosine-protein kinase JAK2 (O60674 whole entry): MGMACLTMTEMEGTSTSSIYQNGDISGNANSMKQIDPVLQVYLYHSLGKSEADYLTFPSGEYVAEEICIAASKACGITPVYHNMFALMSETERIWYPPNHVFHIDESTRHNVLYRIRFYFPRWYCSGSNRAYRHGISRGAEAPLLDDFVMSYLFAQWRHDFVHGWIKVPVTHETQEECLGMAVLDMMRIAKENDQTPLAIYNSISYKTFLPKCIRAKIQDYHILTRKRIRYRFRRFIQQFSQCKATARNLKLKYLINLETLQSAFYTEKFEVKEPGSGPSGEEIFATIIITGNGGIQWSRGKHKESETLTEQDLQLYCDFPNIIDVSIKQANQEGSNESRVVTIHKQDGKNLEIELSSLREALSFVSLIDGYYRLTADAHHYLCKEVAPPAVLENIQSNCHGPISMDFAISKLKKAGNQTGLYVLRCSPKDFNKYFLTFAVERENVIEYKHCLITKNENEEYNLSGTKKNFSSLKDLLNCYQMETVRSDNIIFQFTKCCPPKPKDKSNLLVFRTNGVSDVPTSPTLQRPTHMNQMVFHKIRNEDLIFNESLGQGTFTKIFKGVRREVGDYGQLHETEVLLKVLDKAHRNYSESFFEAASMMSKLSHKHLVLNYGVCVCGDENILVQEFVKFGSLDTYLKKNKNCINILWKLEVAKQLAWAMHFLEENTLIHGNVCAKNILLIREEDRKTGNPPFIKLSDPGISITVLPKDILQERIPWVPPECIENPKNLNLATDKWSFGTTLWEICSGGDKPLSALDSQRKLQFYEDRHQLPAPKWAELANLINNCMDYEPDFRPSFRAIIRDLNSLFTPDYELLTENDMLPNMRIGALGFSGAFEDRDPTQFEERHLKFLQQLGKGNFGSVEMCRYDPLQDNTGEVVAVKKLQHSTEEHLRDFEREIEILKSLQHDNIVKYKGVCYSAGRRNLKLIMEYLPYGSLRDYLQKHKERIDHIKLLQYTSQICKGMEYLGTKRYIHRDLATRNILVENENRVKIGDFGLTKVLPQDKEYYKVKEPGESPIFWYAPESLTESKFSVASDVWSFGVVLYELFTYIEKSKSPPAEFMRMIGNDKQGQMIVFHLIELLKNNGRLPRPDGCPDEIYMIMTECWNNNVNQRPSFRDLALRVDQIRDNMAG

In the case of `CN1CCN(c2ccc(C(=O)Nc3n[nH]c4ccc(Cc5cc(F)cc(F)c5)cc34)c(NC3CCOCC3)c2)CC1` [ENTRECTINIB], the IC50 is greater than 1 µM in [1]; 0.04 µM in series [4]; 0.031 µM in series [5]; greater than 10 µM in [10]; 0.017 µM with KM12; 0.024 µM in series [13]. For the same molecule, the IC50 in series [15] was greater than 10 µM; in series [17], 0.081 µM; in series [19], greater than 1 µM; in series [20], greater than 10 µM; in [21], 2.1 µM. The highest concentration (Cmax) is 1.33 µM in series [2] and 4.9 µM in series [6]. For the same molecule, the values for the Tmax in series [3] and in [14] were 2.5 h and 3.08 h, respectively. The molecule further showed a concentration at 6 h in series [7] of 4.57 µM. For the same molecule, the half-life in series [8] is 3.8 h; in [9] it was 11.9 h. The bioavailability in series [11] came out at 77%. In addition, the AUC(0-inf) in [12] was 17.6 µM·h; in series [23], 5.7 µM·h. For the same molecule, in [16], the Kp at 6 h amounted to 0.43. In series [18], the clearance is 1.25 L/h/kg. The Papp A→B at 2 h, 2.5 mg/ml in [22] worked out at 24 nm/s.
